Test: molar heat capacity at constant volume
Conditions: Fluid (supercritical or subcritical phases), Vacuum adiabatic calorimetry

CC(C)O [propan-2-ol]
Conditions | molar heat capacity at constant volume [J/K/mol]
501.94 K, Mass density=343.1 kg/m3 | 317.72
502.03 K, Mass density=266.3 kg/m3 | 345.37
502.04 K, Mass density=343.1 kg/m3 | 315.2
502.13 K, Mass density=266.3 kg/m3 | 347.59
502.13 K, Mass density=343.1 kg/m3 | 309.67
502.22 K, Mass density=266.3 kg/m3 | 350.23
502.22 K, Mass density=343.1 kg/m3 | 314.54
502.31 K, Mass density=266.3 kg/m3 | 348.13
502.32 K, Mass density=343.1 kg/m3 | 312.25
502.41 K, Mass density=266.3 kg/m3 | 351.2
502.41 K, Mass density=343.1 kg/m3 | 317.66
502.5 K, Mass density=266.3 kg/m3 | 350.29
502.5 K, Mass density=343.1 kg/m3 | 312.07
502.6 K, Mass density=266.3 kg/m3 | 350.29
502.6 K, Mass density=343.1 kg/m3 | 310.39
503.92 K, Mass density=329.2 kg/m3 | 322.05
504.02 K, Mass density=329.2 kg/m3 | 325.72
504.11 K, Mass density=329.2 kg/m3 | 323.31
504.3 K, Mass density=329.2 kg/m3 | 318.86
504.37 K, Mass density=281.9 kg/m3 | 348.13
504.46 K, Mass density=281.9 kg/m3 | 351.02
504.5 K, Mass density=329.2 kg/m3 | 325.72
504.56 K, Mass density=234.3 kg/m3 | 386.83
504.56 K, Mass density=281.9 kg/m3 | 346.57
504.59 K, Mass density=329.2 kg/m3 | 319.65
504.65 K, Mass density=234.3 kg/m3 | 381.48
504.65 K, Mass density=281.9 kg/m3 | 351.08
504.74 K, Mass density=234.3 kg/m3 | 386.35
504.74 K, Mass density=281.9 kg/m3 | 346.63
504.84 K, Mass density=234.3 kg/m3 | 392.36
504.84 K, Mass density=281.9 kg/m3 | 355.64
504.93 K, Mass density=281.9 kg/m3 | 355.64
504.97 K, Mass density=234.3 kg/m3 | 391.52
504.98 K, Mass density=329.2 kg/m3 | 328.36
505.02 K, Mass density=281.9 kg/m3 | 349.27
505.08 K, Mass density=329.2 kg/m3 | 326.92
505.12 K, Mass density=234.3 kg/m3 | 387.07
505.12 K, Mass density=281.9 kg/m3 | 354.2
505.21 K, Mass density=234.3 kg/m3 | 382.87
505.21 K, Mass density=281.9 kg/m3 | 355.76
505.21 K, Mass density=324.5 kg/m3 | 333.29
505.27 K, Mass density=329.2 kg/m3 | 325.96
505.3 K, Mass density=234.3 kg/m3 | 387.13
505.3 K, Mass density=324.5 kg/m3 | 339.78
505.37 K, Mass density=329.2 kg/m3 | 325.35
505.4 K, Mass density=234.3 kg/m3 | 387.13
505.49 K, Mass density=288.99 kg/m3 | 349.87
505.58 K, Mass density=288.99 kg/m3 | 350.77
505.58 K, Mass density=324.5 kg/m3 | 333.05
505.68 K, Mass density=288.99 kg/m3 | 343.14
505.68 K, Mass density=324.5 kg/m3 | 338.82
505.77 K, Mass density=288.99 kg/m3 | 350.47
505.77 K, Mass density=324.5 kg/m3 | 335.27
505.77 K, Mass density=343.1 kg/m3 | 323.67
505.86 K, Mass density=288.99 kg/m3 | 346.63
505.86 K, Mass density=324.5 kg/m3 | 337.13
505.86 K, Mass density=343.1 kg/m3 | 325.29
505.96 K, Mass density=288.99 kg/m3 | 350.53
505.96 K, Mass density=324.5 kg/m3 | 332.09
505.96 K, Mass density=343.1 kg/m3 | 323.97
506.05 K, Mass density=288.99 kg/m3 | 354.32
506.05 K, Mass density=324.5 kg/m3 | 336.65
506.05 K, Mass density=343.1 kg/m3 | 326.26
506.14 K, Mass density=288.99 kg/m3 | 350.59
506.14 K, Mass density=324.5 kg/m3 | 342.42
506.14 K, Mass density=343.1 kg/m3 | 328.36
506.24 K, Mass density=288.99 kg/m3 | 350.65
506.24 K, Mass density=324.5 kg/m3 | 340.02
506.24 K, Mass density=343.1 kg/m3 | 327.04
506.33 K, Mass density=274 kg/m3 | 361.17
506.33 K, Mass density=288.99 kg/m3 | 346.33
506.33 K, Mass density=324.5 kg/m3 | 336.41
506.33 K, Mass density=343.1 kg/m3 | 326.44
506.42 K, Mass density=274 kg/m3 | 362.97
506.42 K, Mass density=343.1 kg/m3 | 329.92
506.43 K, Mass density=329.2 kg/m3 | 328.06
506.52 K, Mass density=274 kg/m3 | 361.05
506.52 K, Mass density=288.99 kg/m3 | 351.92
506.52 K, Mass density=324.5 kg/m3 | 341.04
506.52 K, Mass density=343.1 kg/m3 | 328.3
506.53 K, Mass density=329.2 kg/m3 | 330.64
506.61 K, Mass density=274 kg/m3 | 365.62
506.61 K, Mass density=288.99 kg/m3 | 355.52
506.61 K, Mass density=343.1 kg/m3 | 329.98
506.62 K, Mass density=329.2 kg/m3 | 335.93
506.7 K, Mass density=288.99 kg/m3 | 357.63
506.7 K, Mass density=324.5 kg/m3 | 343.74
506.72 K, Mass density=329.2 kg/m3 | 332.69
506.8 K, Mass density=288.99 kg/m3 | 349.21
506.8 K, Mass density=343.1 kg/m3 | 329.08
506.82 K, Mass density=329.2 kg/m3 | 332.27
506.89 K, Mass density=288.99 kg/m3 | 354.98

Source: the NIST ThermoML archive (doi:10.1016/j.jct.2019.03.023)
